Like-named read-outs stand apart in the source and are kept apart here.

Series [1] has as its system acetic acid "writhing". Briefly: Acetic acid "writhing test" on mice (analgesic effect; method of Newbould). Format: in vivo. The settings on record: Mus musculus, po. As for the experimental part: 2. Acetic acid "writhing test" on mice (analgesic effect) Method: Newbould, Brit. […] In the period between the 5th and 10th minutes following the administration of acetic acid the number of the characteristic "writhing" responses is counted for each animal and the "total writhing number" (within 5 minutes) is expressed as the percentage of the value obtained for the control animals. The mice are treated with the test compound and the carrier, respectively, orally 1 hour before the administration of acetic acid. 12 animals are used per dose.

Series [2] in a line: Toxicity (LD50) and therapeutical index, Table II. The settings on record: mouse, in vivo.
Series [3] deals with experimental coronaria insufficiency induced with vasopressin. Put plainly: Antianginal effect (vasopressin-induced experimental coronaria insufficiency, ECG wave T; method of Nieschulz et al.). Format: in vivo. The following applies: male rats, 2 minutes prior to vasopressin; for ED50: Rattus norvegicus, iv. As for the experimental part:
Method: the test was carried out on rats by using the method of Nieschulz, E., Popendiker, K. and Hoffmann, I. (Arzneimittel Forschung, 5, 680 /1955/).
Male rats of 180-220 g body weight were narcotized with chloralese-urethane(70-700 mg/kg ip.). The ECG was registered with needle electrodes in standard II leading. The experimental coronaria insufficiency was induced with […].). The height of wave T in ECG was measured before and after the administration of vasopressin in both the control and treated groups. Test compounds were administered intravenously 2 minutes prior to the treatment with vasopressin.

Where [4] appears, read: white mice, orally 1 hour before acetic acid, writhing counted 5th to 10th minutes, 12 animals per dose, read-out: ID50 (the source's name).

On to `CC(=O)Oc1ccccc1C(=O)O` [Acetylsalicylic acid, reference compound], for which the ED50 in series [1] (read-out: ID50 mg/kg) is 261 mg/kg. Also, in series [2], the median lethal dose (LD50) was found to be 1350 mg/kg and the selectivity ratio came out at 5.2.

For the compound `C=CCNC(=S)N=C1SCCN1c1cc(Cl)ccc1[N+](=O)[O-]` [Example 20, 2-(N'-Allylthiocarbamoylimino)-3-(5'-chloro-2'-nitrophenyl)-thiazolidine], in series [3], the ED50 came out at 1.45 mg/kg and the “Activity (2 mg/kg iv.)” value is 78%.

Consider `CC(=O)N=C1SCCN1c1ccc(Cl)cc1[N+](=O)[O-]` [Example 24, 2-Acetylimino-3-(4'-chloro-2'-nitrophenyl)-thiazolidine], for which the ED50 in series [1] (setting [4]) came out at 37 mg/kg. Further, in series [2], the LD50 is 700 mg/kg and the selectivity ratio was 10.9.

`CC(=O)N=C1SCCN1c1ccccc1[N+](=O)[O-]` [Example 25, L-Acetylimino=3-(2-nitrophenyl)-thiazolidine]: the ED50 in series [1] (setting [4]) was found to be 180 mg/kg. Further, in series [2], the LD50 was found to be 2000 mg/kg and the selectivity ratio was 11.1.

As to `CC(=O)N=C1SCCN1c1ccc(C(F)(F)F)cc1[N+](=O)[O-]` [Example 26, 2-Acetylimino-3-(4'-trifluoromethyl-2'-nitrophenyl)-thiazolidine], the ED50 in series [1] (setting [4]) worked out at 170 mg/kg. For the same compound, in series [2], the LD50 is 2000 mg/kg and the selectivity ratio was determined as 11.8.

In the case of `N#CN=C1SCCN1c1cc(Cl)ccc1[N+](=O)[O-]` [Example 46, 2-Cyanimido-3-(5'-chloro-2'-nitrophenyl)thiazolidine], in series [3], the ED50 was 1.76 mg/kg and the “Activity (2 mg/kg iv.)” value is 62%.

For the origin of these results see patent US5240918A, “2-(substituted imino)-thiazolidines and process for the preparation thereof” (EGIS Gyogyszergyar, priority 1992, dated 1993).
